Source: patent publication US20110135755A1, “Combination therapies for treating neoplastic disease” (priority 2009, published 2011)
“Also recorded” adds a separate entry of the source.

Tests used:
[1] = test system: HCT 8 and T47D cell lines; assay: MTT, SRB and CVE assays with exposure of up to 10 days; assay type: cell-based; conditions: 18000 and 26000 cells/well
Source text: Graphs depicting the results obtained are shown in FIGS. 6 to 11 (it should be noted that some graphs have the x axis displaying cancer cell kill, whilst others display cancer cell viability).

[2] = Element concentrations in kidney samples of treated rats; assay type: in vivo; conditions: rat kidney; cisplatin single iv 6.5 mg/kg; CV247 oral 3 ml/kg bd, fourteen days
Source text: Liver and kidney samples were subsequently examined to see if CV 247 protected the rats from the accumulation of platinum and platinum free radicals, and what kind of metal ion concentration changes occur after treatment.

N.N.[Cl][Pt][Cl] [Cisplatin, cis-diamminedichloroplatinum]
effect on cancer cell kill / viability at cisplatin dose of 1 mg ([1]; cisplatin 1 mg alone or with CV247): only a marginal long term benefit; also recorded: effect after 4 days was often reduced
effect on cancer cell kill / viability ([1]; high doses of cisplatin, CV247 alone): cytotoxic
Pt [2]: 3.048 ± 0.583
